Where only a bound is given, the exact number is not on record here.

27 compounds from patent US8071768B2, “Alkylquinoline and alkylquinazoline kinase modulators” (Janssen Pharmaceutica, N.V., priority 2005, dated 2011) can be followed below.

T1 sequence (Q16620 32-822): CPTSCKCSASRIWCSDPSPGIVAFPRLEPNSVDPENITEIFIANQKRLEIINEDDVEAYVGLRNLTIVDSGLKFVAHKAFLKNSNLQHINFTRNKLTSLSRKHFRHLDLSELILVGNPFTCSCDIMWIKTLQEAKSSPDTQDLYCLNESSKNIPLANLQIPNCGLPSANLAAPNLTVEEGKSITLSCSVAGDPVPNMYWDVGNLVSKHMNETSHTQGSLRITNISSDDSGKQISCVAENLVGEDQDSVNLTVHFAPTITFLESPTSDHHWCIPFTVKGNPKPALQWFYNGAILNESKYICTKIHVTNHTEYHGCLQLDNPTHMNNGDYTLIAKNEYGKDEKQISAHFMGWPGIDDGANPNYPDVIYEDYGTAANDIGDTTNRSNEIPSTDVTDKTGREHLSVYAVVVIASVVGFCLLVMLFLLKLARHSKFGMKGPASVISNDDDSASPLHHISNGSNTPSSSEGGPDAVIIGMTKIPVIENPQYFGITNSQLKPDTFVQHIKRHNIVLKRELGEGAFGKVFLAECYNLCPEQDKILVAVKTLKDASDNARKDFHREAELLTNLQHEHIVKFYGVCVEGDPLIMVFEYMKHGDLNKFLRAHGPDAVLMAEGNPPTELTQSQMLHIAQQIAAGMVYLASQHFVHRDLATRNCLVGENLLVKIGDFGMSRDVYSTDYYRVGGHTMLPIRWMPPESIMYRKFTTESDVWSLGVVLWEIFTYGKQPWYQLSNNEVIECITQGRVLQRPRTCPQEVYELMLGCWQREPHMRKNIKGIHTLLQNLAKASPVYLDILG

This assay has as its target T1, TrkB (Homo sapiens, UniProt Q16620).
T1 construct: purchased Upstate 14-507M
Briefly: Trk B Fluorescence Polarization Kinase Assay. In kind it is biochemical. As to conditions: uncertainty ±10%. As for the experimental part:
Trk B Fluorescence Polarization Kinase Assay (TrkB IC50 Data)
The compounds of the present invention are also specific inhibitors of TrkB. Selection of preferred compounds of Formula I for use as TrkB inhibitors was performed in the following manner. The TrkB assay utilized the fluorescein-labeled phosphopeptide and the anti-phosphotyrosine antibody included in the Panvera Phospho-Tyrosine Kinase Kit (Green) supplied by Invitrogen. When TrkB phosphorylated poly Glu4Tyr, the fluorescein-labeled phosphopeptide was displaced from the anti-phosphotyrosine antibody by the phosphorylated poly Glu4Tyr, thus decreasing the FP value. The TrkB kinase reaction was incubated at room temperature for 30 minutes under the following conditions: 50 nM TrkB (Upstate, catalog # 14-507M), 20 ug/mL poly Glu4Tyr, 150 uM ATP, 5 mM MgCl2, 1% compound in DMSO. The kinase reaction was stopped with the addition of EDTA. The fluorescein-labeled phosphopeptide and the anti-phosphotyrosine antibody were added and incubated for 30 minutes at room temperature. Data points were an average of triplicate samples. Inhibition and IC50 data analysis were done with GraphPad Prism using a non-linear regression fit with a multiparamater, sigmoidal dose-response (variable slope) equation.
`CC(C)Oc1ccc(NC(=O)N2CCC(c3ncnc4cc(OCCCN5CCCCC5)ccc34)CC2)cc1` [Compound 33, 4-(7-(3-Piperidin-1-yl-propoxy)-quinazolin-4-yl)-piperidine-1-carboxylic acid (4-isopropoxy-phenyl)-amide]: the IC50 (in general, the midpoint of a concentration-inhibition curve) was 0.9 µM.

As for `CC(C)Oc1ccc(NC(=O)N2CCC(c3ncnc4cc(OCCN5CCCCC5)ccc34)CC2)cc1` [Compound 34, 4-(7-(2-Piperindin-1-yl-ethoxy)-quinazolin-4-yl)-piperidine-1-carboxylic acid (4-isopropoxy-phenyl)-amide], the IC50 worked out at 2.8 µM.

On to `CCN(CC)CCOc1ccc2c(C3CCN(C(=O)Nc4ccc(OC(C)C)cc4)CC3)ncnc2c1` [Compound 35, 4-[7-(2-Diethylamino-ethoxy)-quinazolin-4-yl)-piperidine-1-carboxylic acid (4-isopropoxy-phenyl)-amide], for which the IC50 was 1.5 µM.

In turn, `CCN(CC)CCCOc1ccc2c(C3CCN(C(=O)Nc4ccc(OC(C)C)cc4)CC3)ncnc2c1` [Compound 36, 4-[7-(3-Diethylamino-propoxy)-quinazolin-4-yl)-piperidine-1-carboxylic acid (4-isopropoxy-phenyl)-amide] came in with an IC50 of 0.6 µM.

In the case of `CC(C)Oc1ccc(NC(=O)N2CCC(c3ncnc4cc(OCCN5CCOCC5)ccc34)CC2)cc1` [Compound 37], the IC50 came to 0.7 µM.

`CC(C)Oc1ccc(NC(=O)N2CCC(c3ncnc4cc(OCCCN5CCOCC5)ccc34)CC2)cc1` [Compound 38] registered an IC50 of 0.1 µM.

Compound `COCCOc1ccc(NC(=O)N2CCC(c3ncnc4cc(OC)c(OC)cc34)CC2)cc1` [Compound 40, 4-(6,7-Dimethoxy-quinazolin-4-yl)-piperidine-1-carboxylic acid [4-(2-methoxy-ethoxy)-phenyl]-amide] returned an IC50 of more than 42 µM.

With `COc1ccc(NC(=O)N2CCC(c3ncnc4cc(OC)c(OC)cc34)CC2)cc1` [Compound 41, 4-(6,7-Dimethoxy-quinazolin-4-yl)-piperidine-1-carboxylic acid (4-methoxy-phenyl)-amide], the IC50 came out at 11.7 µM.

For the compound `COc1cc2ncnc(C3CCN(C(=O)NC4CCCCC4)CC3)c2cc1OC` [Compound 42, 4-(6,7-Dimethoxy-quinazolin-4-yl)-piperidine-1-carboxylic acid cyclohexylamide], the IC50 was 28.7 µM.

As to `CCCCc1ccc(NC(=O)N2CCC(c3ncnc4cc(OC)c(OC)cc34)CC2)cc1` [Compound 43, 4-(6,7-Dimethoxy-quinazolin-4-yl)-piperidine-1-carboxylic acid (4-butyl-phenyl)-amide], the IC50 was determined as 0.8 µM.

Consider `CCOc1ccc(NC(=O)N2CCC(c3ncnc4cc(OC)c(OC)cc34)CC2)cc1` [Compound 44, 4-(6,7-Dimethoxy-quinazolin-4-yl)-piperidine-1-carboxylic acid (4-ethoxy-phenyl)-amide], for which half-maximal inhibition (IC50) was put at 2.2 µM.

Compound `COc1cc2ncnc(C3CCN(C(=O)Nc4ccccc4)CC3)c2cc1OC` [Compound 45, 4-(6,7-Dimethoxy-quinazolin-4-yl)-piperidine-1-carboxylic acid phenylamide] showed an IC50 of 6.5 µM.

Compound `COc1cc2ncnc(C3CCN(C(=O)Nc4ccc(C(F)(F)F)cc4)CC3)c2cc1OC` [Compound 46, 4-(6,7-Dimethoxy-quinazolin-4-yl)-piperidine-1-carboxylic acid (4-trifluoromethyl-phenyl)-amide] returned an IC50 of 18.3 µM.

On to `COc1cc2ncnc(C3CCN(C(=O)Nc4ccc(Oc5ccccc5)cc4)CC3)c2cc1OC` [Compound 47, 4-(6,7-Dimethoxy-quinazolin-4-yl)-piperidine-1-carboxylic acid (4-phenoxy-phenyl)-amide], for which the IC50 turned out to be 4 µM.

`COc1cc2ncnc(C3CCN(C(=O)Nc4ccc(C)cc4)CC3)c2cc1OC` [Compound 48, 4-(6,7-Dimethoxy-quinazolin-4-yl)-piperidine-1-carboxylic acid p-tolylamide] came in with an IC50 of 6.6 µM.

`COc1cc2ncnc(C3CCN(C(=O)Nc4ccc(Cl)cc4)CC3)c2cc1OC` [Compound 49, 4-(6,7-Dimethoxy-quinazolin-4-yl)-piperidine-1-carboxylic acid (4-chloro-phenyl)-amide] registered an IC50 of 22.3 µM.

In turn, `COc1cc2ncnc(C3CCN(C(=O)Nc4ccc(OC(F)(F)F)cc4)CC3)c2cc1OC` [Compound 50, 4-(6,7-Dimethoxy-quinazolin-4-yl)-piperidine-1-carboxylic acid (4-trifluoromethoxy-phenyl)-amide] displayed an IC50 of 0.5 µM.

Compound `COc1cc2ncnc(C3CCN(C(=O)Nc4ccc(OC(F)F)cc4)CC3)c2cc1OC` [Compound 51, 4-(6,7-Dimethoxy-quinazolin-4-yl)-piperidine-1-carboxylic acid (4-difluoromethoxy-phenyl)-amide] yielded an IC50 of 4 µM.

As for `CCC(C)c1ccc(NC(=O)N2CCC(c3ncnc4cc(OC)c(OC)cc34)CC2)cc1` (stereo not drawn) [Compound 52, 4-(6,7-Dimethoxy-quinazolin-4-yl)-piperidine-1-carboxylic acid (4-sec-butyl-phenyl)-amide], the IC50 amounted to 1.2 µM.

Consider `COc1cc2ncnc(C3CCN(C(=O)Nc4ccc(C(C)(C)C)cc4)CC3)c2cc1OC` [Compound 53, 4-(6,7-Dimethoxy-quinazolin-4-yl)-piperidine-1-carboxylic acid (4-tert-butyl-phenyl)-amide], for which the IC50 is 1.1 µM.

Regarding `COc1cc2ncnc(C3CCN(C(=O)NC4CCC(C(C)(C)C)CC4)CC3)c2cc1OC` (stereo not drawn) [Compound 54, 4-(6,7-Dimethoxy-quinazolin-4-yl)-piperidine-1-carboxylic acid (4-tert-butyl-cyclohexyl)-amide], 6.2 µM corresponded to half-maximal inhibition (IC50).

Regarding `COc1cc2ncnc(C3CCN(C(=O)Nc4ccc(OC(C)C)nc4)CC3)c2cc1OC` [Compound 56, 4-(6,7-Dimethoxy-quinazolin-4-yl)-piperidine-1-carboxylic acid (6-isopropoxy-pyridin-3-yl)-amide], the concentration for half-maximal inhibition (IC50) was 0.4 µM.

`COc1cc2ncnc(C3CCN(C(=O)Nc4ccc(N5CCCC5=O)cc4)CC3)c2cc1OC` [Compound 57, 4-(6,7-Dimethoxy-quinazolin-4-yl)-piperidine-1-carboxylic acid [4-(2-oxo-pyrrolidin-1-yl)-phenyl]-amide] had an IC50 of 24.9 µM.

For the compound `COc1cc2ncnc(C3CCN(C(=O)Nc4ccc(-c5cncnc5)cc4)CC3)c2cc1OC` [Compound 58, 4-(6,7-Dimethoxy-quinazolin-4-yl)-piperidine-1-carboxylic acid (4-pyrimidin-5-yl-phenyl)-amide], the concentration for half-maximal inhibition (IC50) is more than 42 µM.

`COc1cc2ncnc(C3CCN(C(=O)Nc4ccc(-c5ccco5)cc4)CC3)c2cc1OC` [Compound 59, 4-(6,7-Dimethoxy-quinazolin-4-yl)-piperidine-1-carboxylic acid (4-furan-2-yl-phenyl)-amide]: half-maximal inhibition (IC50) required 13.9 µM.

In turn, `COc1cc2ncnc(C3CCN(C(=O)Nc4ccc(-c5ccc(Cl)nc5)cc4)CC3)c2cc1OC` [Compound 60, 4-(6,7-Dimethoxy-quinazolin-4-yl)-piperidine-1-carboxylic acid [4-(6-chloro-pyridin-3-yl)-phenyl]-amide] gave an IC50 of 8.1 µM.

With `COc1cc2ncnc(C3CCN(C(=O)Nc4ccc(C5=CCN(C(=O)OC(C)(C)C)CC5)cc4)CC3)c2cc1OC` [Compound 61, 4-(4-{[4-(6,7-Dimethoxy-quinazolin-4-yl)-piperidine-1-carbonyl]-amino}-phenyl)-3,6-dihydro-2H-pyridine-1-carboxylic acid tert-butyl ester], the IC50 was determined as 40.6 µM.
